Assay results taken from patent publication US20250326814A1, “MODIFIED OXYNTOMODULIN AND METHODS OF USE THEREOF” (OPKO BIOLOGICS LTD., priority 2024, published 2025).
“Also recorded” adds a separate entry of the source. Values belong to the molecule of their own block, whether it stands above or below them. Non-standard residues stand in square brackets, D forms with d. Residues, ends and D or L forms follow the SMILES beside them. *: point of attachment. X1 = O=C(O)CCCCCCCCCCCCCCCCCCC(=O)N[C@@H](CCC(=O)NCCOCCOCC(=O)NCCOCCOCC(=O)N[C@@H](CCCCNC(=O)C*)C(=O)NCC(=O)O)C(=O)O; Aib = CC(C)(N)C(=O)O

What was measured:
[1] = Solubility data of the binder complex; type: physicochemical
Excerpt: The structure and characteristics of the binder complex are detailed in Table 4 below.

DIO mice [2] = assay: Liver cholesterol, triglyceride and glycogen in DIO mice; type: in vivo
Method: (§1) After termination, the liver was collected and weighed. Specific liver samples and biopsies were dissected and processed as specified in table “Termination samples” in the protocol and further described below.
The Liver TG TC piece (25±5 mg) was dissected from the right medial lobe, with no edges, on the opposite side of the sponsor piece. The samples were weighed individually, collected in tubes and frozen in liquid nitrogen. The samples were stored at −70° C.
Liver Triglycerides (TG) and Total cholesterol (TC): The liver content of triglyceride and total cholesterol was extracted from the liver samples into 5% NP-40, in a homogenization process followed by a heating step, where the samples were heated twice to 90° C. The samples were then centrifuged, and the supernatant was collected. The TG and TC levels were then determined by measurement on the cobas c 501 autoanalyzer with the relevant commercial kits from Roche Diagnostics.
(§2) Sixty C57BL/6JRj male mice were fed a high fat diet (60% HFD, D12492—Ssniff) for 20 weeks before treatment start. […] Body weight and food intake (24 h) were measured daily. In week 3, an OGTT study was performed. Baseline and preterminal fasting blood glucose and plasma insulin were assessed. Preterminal plasma TC and TG were assessed. Terminal endpoints included liver and heart weight, liver TC, TG, […] and lipid content (HE staining).

DIO mice [3] = assay: Body composition (fat and lean tissue mass) in DIO mice; type: in vivo
Method: The body composition of mice was assessed by an EchoMRI 3 in 1 Body composition analyzer (EchoMRI, US). Non-anaesthetized animals were placed in a plastic tube inside the MRI scanner for approximately 80 seconds. The body composition was reported as fat mass and fat free mass (lean mass).
as §2

DIO mice [4] = assay: Organ weights at termination in DIO mice; type: in vivo; conditions: mid and high (5 and 15 nmol/kg)
Method: as §1, §2

[5] = biological target: T1, glucagon-like peptide-1 (GLP1) receptor (Homo sapiens, UniProt P43220); assay: GLP-1 activity EC50 of OXM analogs and GLP-1 therapeutics (Example 4, Table 9); type: cell-based; conditions: GLP-1 activity; Table 9; read-out: EC50
T1 construct: expressed in transfected cells; host or cells: CHO-K1
Excerpt: The potencies of the modified OXM analogs newly disclosed in the present application, the OXM Analog alone, and the PEGylated OXM analog were examined and compared by measuring the EC50 of both receptors, glucagon-like peptide-1 (GLP1) and glucagon (GCGR).

DIO mice [6] = assay: Oral glucose tolerance test in DIO mice; type: in vivo
Method: Animals were housed in a clean cage and fasted for 4 hours prior to oral or intraperitoneal glucose administration. At timepoint 0, mice receive an oral or intraperitoneal dose of 10 ml/kg of 200 mg/ml standard glucose solution (Fresenius Kabi, DK). At timepoint 0, mice received an oral or intraperitoneal dose of 4 ml/kg of standard 500 mg/ml glucose solution (Fresenius Kabi, DK). Blood samples (10 μl) were collected at various timepoints defined in the study protocol into heparinized glass capillary tubes and immediately suspended in glucose/lactate system solution buffer (EKF-diagnostics, Germany). Blood glucose (BG) was measured using a BIOSEN c-Line glucose meter (EKF-diagnostics, Germany) according to the manufacturer's instructions. After the last blood sample and/or drug dose, the animals were returned to the normal feeding schedule.
as §2

GCGR = GCGR (Homo sapiens, UniProt P47871); assay: Glucagon activity in vitro of PEGylated and acylated OXM peptide analogs (Table 12); type: cell-based
Method: (§5) The potential benefits of novel acylated OXM products relative to the PEGylated OXM peptide were evaluated for GLP-1 and Glucagon activity in vitro, molecular weight, dosing, and efficacy in a DIO Mouse model.
(§6) The potency of the acylated OXM peptides was compared with the native OXM peptide alone and Pegylated OXM peptide to evaluate the impact of acylation on GLP-1 and Glucagon activities.

DIO mice [7] = assay: Liver H&E staining for lipid droplets / liver lipid in DIO mice; type: in vivo
Method: In summary, glass slides with paraffin embedded sections were deparaffinated in xylene and rehydrated in series of graded ethanol.
Slides treated with histochemical and immunohistochemical stains were scanned using a 20× objective in a ScanScope AT slide scanner (Aperio).
Hematoxylin & Eosin (H&E) staining: Sections of FFPE tissue were incubated in Mayer's Hematoxylin (Dako), washed in tap water, stained in Eosin Y solution (Sigma-Aldrich), dehydrated in graded ethanol and cover slipped.
as §2

DIO mice [8] = assay: Body weight and food intake in DIO mice, 4 weeks daily treatment; type: in vivo
Method: (§3) The animals were individually weighed and analyzed for lipid and cholesterol levels prior to treatment and following completion of the study. The levels of fasting glucose and insulin levels were analyzed, and oral glucose tolerance test was performed and compared between groups The levels of plasma triglycerides and cholesterol were evaluated at the end of study and compared to base levels prior to treatment. Levels of total cholesterol, triglycerides and glycogen were also examined at the end of study. Histology of liver was used to analyze for lipid droplets in the liver. All tests were conducted using routine methods known in the art.
The mice used in the studies were the gubra diet-induced obese (DIO) mouse model. This mouse model is fed a high fat diet that results in rapid weight gain. The DIO mice were based on male C57BI/6J mice and ready for experiment after 18 weeks on a 60% high fat diet.
To ensure accurate monitoring of weight changes over the course of the study, the animals were weighed daily with precision, prior to dosing at 7:00 AM. Body weight data was recorded in two formats: (1) Absolute measurements: The direct weight of the animal each day, and (2) Relative measurements: The weight expressed as a percentage relative to the body weight recorded on Day 1.
as §2

DIO mice [9] = assay: Fasting blood glucose and plasma insulin in DIO mice; type: in vivo
Method: (§4) For in vivo blood samples, tail-vein, tongue or cheek blood was collected in a Microvette tube of appropriate dimensions with anticoagulant and mixed by inversion 5 times. Blood was placed at 4° C. until centrifuged at 3000 g for 10 minutes. The plasma supernatants were transferred to new tubes and immediately frozen on dry ice. The samples were stored at −70° C.
Insulin: Blood samples were collected in heparinized tubes and plasma was separated and stored at −70° C. until analysis. Insulin was measured using the commercial MSD platform (Meso Scale Diagnostics).
as §2

GLP1 = GLP1 (Homo sapiens, UniProt P43220); assay: GLP-1 activity in vitro of PEGylated and acylated OXM peptide analogs (Table 12); type: cell-based
Method: as §5, §6

DIO mice [10] = assay: Plasma cholesterol and triglyceride in DIO mice; type: in vivo
Method: as §4, with “termination” for “in vivo”, “during anesthesia with isoflurane, the abdominal cavity was opened, and cardiac” for “tail-vein, tongue or cheek”, “drawn with” for “collected in”, “syringe into a Microvette/Vacuette” for “Microvette tube”
Alanine transaminase (ALT), Aspartate transaminase (AST), Triglycerides (TG) and Total Cholesterol (TC): Blood samples were collected in heparinized tubes and plasma was separated and stored at −70° C. until analysis. Samples were measured using commercial kits (Roche Diagnostics), on the cobas c 501 autoanalyzer.
as §2

DIO mice [11] = assay: Weight loss in DIO mice with OPK-88604 and OPK-88006, 30 nmoles/kg; type: in vivo; conditions: vs placebo, listed as OPK-88604
Method: as §3
DIO mice with weights of around 55 grams were divided into three groups and treated with placebo, 30 nmoles/kg of OPK-88604, or 30 nmoles/kg of OPK-88006 for 4 weeks. The animals were weighed daily for the period of treatment.

[12] = 28 day treatment, vs semaglutide
[13] = mid and high (5 and 15 nmol/kg)
[14] = 15 nmol/kg daily, 28 days, OPK-88604 vs semaglutide
[15] = 28 day treatment, vs semaglutide, listed as OPK-88604

GCGR, sequence (P47871 26-477): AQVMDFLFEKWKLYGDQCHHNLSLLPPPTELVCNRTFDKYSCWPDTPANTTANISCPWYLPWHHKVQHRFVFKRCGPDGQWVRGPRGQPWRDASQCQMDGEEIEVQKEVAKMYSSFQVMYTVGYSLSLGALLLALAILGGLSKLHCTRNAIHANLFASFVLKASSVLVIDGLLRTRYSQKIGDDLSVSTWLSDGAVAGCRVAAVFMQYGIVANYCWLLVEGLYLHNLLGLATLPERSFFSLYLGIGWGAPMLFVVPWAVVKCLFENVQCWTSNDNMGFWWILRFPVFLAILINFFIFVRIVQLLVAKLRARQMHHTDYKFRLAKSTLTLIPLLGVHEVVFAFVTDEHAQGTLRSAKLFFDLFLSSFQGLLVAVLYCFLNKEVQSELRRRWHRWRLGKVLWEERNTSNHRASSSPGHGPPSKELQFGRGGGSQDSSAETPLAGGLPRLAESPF
GLP1, sequence (P43220 24-463): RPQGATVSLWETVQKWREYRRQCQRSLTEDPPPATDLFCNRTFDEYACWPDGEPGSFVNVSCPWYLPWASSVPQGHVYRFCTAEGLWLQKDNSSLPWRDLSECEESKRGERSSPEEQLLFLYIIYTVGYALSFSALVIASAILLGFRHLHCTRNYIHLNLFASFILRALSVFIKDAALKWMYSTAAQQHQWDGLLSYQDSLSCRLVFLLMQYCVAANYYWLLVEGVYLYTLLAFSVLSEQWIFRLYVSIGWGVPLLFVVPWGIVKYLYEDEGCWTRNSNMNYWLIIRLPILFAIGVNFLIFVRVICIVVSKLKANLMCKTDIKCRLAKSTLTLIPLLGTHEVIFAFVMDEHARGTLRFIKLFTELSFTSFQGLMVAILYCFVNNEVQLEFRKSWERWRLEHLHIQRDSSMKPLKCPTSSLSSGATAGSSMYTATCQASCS
T1 sequence (P43220 24-463): as above

Solubility data [1]: Water-based buffer at pHs 6.5-7.5
Molecule: Eicosanedioic-[…]Glu-(AEEA)2-Lys(Ac-Br)-Gly-OH [Binder Complex]

EC50 [5]: 0.09 nM | EC50 (GCGR): 0.164 nM | GCGR/GLP-1R (GCGR; ratio of EC50 activity): 10.3 | EC50 (GLP1): 0.0159 nM
Molecule: CC[C@H](C)[C@H](NC(=O)[C@H](CC(N)=O)NC(=O)[C@H](CC(N)=O)NC(=O)[C@H](CCCNC(=N)N)NC(=O)[C@H](CC(N)=O)NC(=O)[C@H](CCCNC(=N)N)NC(=O)CNC(=O)C(C)(C)NC(=O)[C@H](CC(N)=O)NC(=O)[C@H](CC(C)C)NC(=O)[C@H](CC(C)C)NC(=O)[C@H](Cc1c[nH]c2ccccc12)NC(=O)[C@H](CCC(N)=O)NC(=O)[C@@H](NC(=O)[C@H](Cc1ccccc1)NC(=O)[C@H](CCC(=O)O)NC(=O)[C@H](CCC(N)=O)NC(=O)[C@H](C)NC(=O)[C@H](CCCCN)NC(=O)[C@H](CCCCN)NC(=O)[C@H](CO)NC(=O)[C@H](CC(=O)O)NC(=O)[C@H](CC(C)C)NC(=O)[C@H](Cc1ccc(O)cc1)NC(=O)[C@H](CCCCN)NC(=O)[C@H](CO)NC(=O)[C@H](Cc1ccc(O)cc1)NC(=O)[C@H](CC(=O)O)NC(=O)[C@H](CO)NC(=O)[C@@H](NC(=O)[C@H](Cc1ccccc1)NC(=O)[C@@H](NC(=O)CNC(=O)[C@H](CCC(N)=O)NC(=O)C(C)(C)NC(=O)[C@@H](N)Cc1c[nH]cn1)[C@@H](C)O)[C@@H](C)O)C(C)C)C(=O)N[C@@H](C)C(=O)N[C@@H](CSCC(=O)NCCCC[C@H](NC(=O)COCCOCCNC(=O)COCCOCCNC(=O)CC[C@H](NC(=O)CCCCCCCCCCCCCCCCCCC(=O)O)C(=O)O)C(=O)NCC(=O)O)C(N)=O [Variant 1] (H-H[Aib]QGTFTSDYSKYLDSKKAQEFVQWLLN[Aib]GRNRNNIAC(X1)-NH2)
total liver cholesterol, P compared to Vehicle (FIG. 25B) (DIO mice [2]; 15 nmol/kg QD SC): < 0.05 | total liver cholesterol, triglycerides and glycogen, change from baseline on day 28 (FIG. 28A-C) (DIO mice [2]; [12]): significantly more effective in reducing total liver cholesterol, triglycerides, and glycogen | total liver TC (DIO mice [2]; high (15 nmol/kg)): reduced | liver TG (total and relative) (DIO mice [2]; [13]): reduced | relative fat tissue mass / relative lean tissue mass at week 4, P compared to Vehicle (FIG. 22A, 22B) (DIO mice [3]; 15 nmol/kg QD SC): < 0.01 | relative lean body mass and fat mass change from baseline on day 28 (FIG. 24A, 24B) (DIO mice [3]; [14]): statistically similar | heart weight (DIO mice [4]): reduced | blood glucose in response to an oral glucose bolus compared to vehicle controls (DIO mice [6]; all OPK-88604 groups (2, 5, 15 nmol/kg)): reduced blood glucose compared to vehicle controls | glucose AUC in OGTT (FIG. 38B) (DIO mice [6]; treated for 3 weeks, vs semaglutide): statistically lower | glucose levels in Oral Glucose Tolerance test (FIG. 38A) (DIO mice [6]; treated for 3 weeks, vs semaglutide, listed as OPK-88604): more effective in reducing glucose levels in an Oral Glucose Tolerance test compared to Semaglutide | relative liver lipid / total liver lipid, P compared to Vehicle (FIG. 31A, 31B) (DIO mice [7]; 15 nmol/kg QD SC): < 0.001 | lipid droplets in liver, H&E staining (FIG. 30A-C) (DIO mice [7]; 28 day treatment, vs placebo and semaglutide, listed as OPK-88604): reduced the amount of lipid droplets in liver compared to placebo and animals treated with semaglutide; also recorded: Significantly reduced the amount of lipid droplets in liver compared to Semaglutide | liver lipid content (total and relative) (DIO mice [7]; high (15 nmol/kg)): reduced | food consumption / cumulative food intake (FIG. 17B, 18B) (DIO mice [8]; [14]): Reduced food consumption significantly less than treatment with semaglutide | weight loss from baseline (FIG. 17A, 18A) (DIO mice [8]; 15 nmol/kg daily, 28 days, OPK-88604 vs semaglutide vs placebo): similar | relative body weight (day 28), P compared to Vehicle (FIG. 16B) (DIO mice [8]; Mid, 5 nmol/kg QD SC): < 0.05 | absolute and relative body weight and fat mass compared to the vehicle group (DIO mice [8]; high (15 nmol/kg), four weeks): reduced both absolute and relative body weight and fat mass | relative body weight compared to the vehicle group (DIO mice [8]; mid (5 nmol/kg), four weeks): reduced relative body weight | fasting glucose change from baseline on day 28 (FIG. 35A) (DIO mice [9]; [15]): significant decrease in fasting glucose levels compared to semaglutide treatment; also recorded: significantly more effective in lowering fasting glucose levels | fasting insulin change from baseline on day 28 (FIG. 35B) (DIO mice [9]; [15]): marked increase in insulin levels from baseline compared to semaglutide treatment; also recorded: increased insulin levels compared to Semaglutide | blood glucose levels at study week 4 (DIO mice [9]; all doses (2, 5, 15 nmol/kg)): reduced blood glucose levels | plasma insulin levels during the glucose tolerance test and preterminal (DIO mice [9]; high (15 nmol/kg)): decreased | total plasma cholesterol and triglycerides on day 28 (FIG. 33A, 33B) (DIO mice [10]; [12]): significantly more effective in reducing total plasma cholesterol and triglycerides compared to semaglutide | plasma TC levels at termination (DIO mice [10]; [13]): reduced | weight loss over 4 weeks (FIG. 41A, 41B) (DIO mice [11]): significant weight loss over 4 weeks compared to placebo
